Residue numbers refer to the chain shown, from its start.
Columns and labels:
[1] = system: ELA processing and secretion; test: Xenopus secretion assay of human ELA; format: cell-based, Xenopus laevis; conditions: increasing amounts of inhibitor
Method: ZFNs were purchased from Sigma-Aldrich. […] of mRNAs encoding the ZFN pair were injected into 1-cell stage embryos. ZFN binding sites within exon 1 are as follows: 5′_[…]_3′ (SEQ ID NO: 133) and 5′_[…] 3′ (SEQ 1D NO: 134). Sequencing primers flanking the mutation sites are: forward 5′_[…]_3′ (SEQ ID NO: 135), reverse 5′_[…] 3′ (SEQ ID NO: 136). For ela overexpression, 200 pg of SP6-transcribed zebrafish ela capped mRNA (Applied Biosystems) was injected into 1-cell stage zebrafish embryos. Translation blocking MOs used for aplnra and aplnrb have been described previously (Scott et al., 2007; Zeng et al., 2007) and were purchased from Gene tools (Oregon, USA). Embryos were injected at 1-cell stage with a combination of 1 ng of aplnra MO and 0.5 ng of apinrb MO (Zeng et al., 2007). Information on probes used for q-PCR and WISH can be found in Tables E1 and E2. Zebrafish embryos at 100% epiboly were dechorionated and processed for western blotting as previously described (Link et al., 2006). For the Xenopus secretion assay, 16 ng of SP6-transcribed human ELA capped mRNA (Applied Biosystems) was injected into each cell of 4-cell stage embryos. At stage 8, embryos were dechorionated and dissociated in CMFM medium with 5 mM EDTA. […]

hESCs [2] = test: survival of hESCs after single-cell dissociation (anoikis); format: cell-based, human; conditions: with or without Y-27632
Method: hESCs were dissociated into single cells using Accutase (Stem Cell Technologies) and plated in the presence of 10 μM Y-27632 (ROCK inhibitor) for 12 hours (Watanabe et al., 2007).

aplnrb^grinch (W90L) = target: T1, aplnrb^grinch (W90L) (Danio rerio, UniProt A0T2N3, W90L); test: AP-ELA binding assay, 293T cells overexpressing receptor; conditions: 293T overexpression
T1 sequence (A0T2N3 1-359 W90L): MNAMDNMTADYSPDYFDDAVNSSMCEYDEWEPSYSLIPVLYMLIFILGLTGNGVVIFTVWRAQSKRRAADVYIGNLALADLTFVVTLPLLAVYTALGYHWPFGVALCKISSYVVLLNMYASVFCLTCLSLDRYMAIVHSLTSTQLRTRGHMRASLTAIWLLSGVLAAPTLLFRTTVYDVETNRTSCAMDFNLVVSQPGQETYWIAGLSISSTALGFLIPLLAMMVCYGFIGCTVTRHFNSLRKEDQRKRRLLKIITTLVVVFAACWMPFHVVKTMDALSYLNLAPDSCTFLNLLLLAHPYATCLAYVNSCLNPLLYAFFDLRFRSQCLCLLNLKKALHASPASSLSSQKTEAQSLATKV

zebrafish aplnrb = target: T2, zebrafish aplnrb (Danio rerio, UniProt A0T2N3); test: as above; conditions: HEK293T overexpression
T2 sequence (A0T2N3 1-359): T1 sequence (A0T2N3 1-359 W90L) with L90W

hESCs [3] = test: AP-ELA cell surface binding assay on hESCs; parameters: species or system human; conditions: undifferentiated hESCs
zebrafish aplnra = target: T3, zebrafish aplnra (Danio rerio, UniProt Q7SZP9); test: AP-ELA binding assay, 293T cells overexpressing receptor; conditions: HEK293T overexpression
T3 sequence (Q7SZP9 1-362): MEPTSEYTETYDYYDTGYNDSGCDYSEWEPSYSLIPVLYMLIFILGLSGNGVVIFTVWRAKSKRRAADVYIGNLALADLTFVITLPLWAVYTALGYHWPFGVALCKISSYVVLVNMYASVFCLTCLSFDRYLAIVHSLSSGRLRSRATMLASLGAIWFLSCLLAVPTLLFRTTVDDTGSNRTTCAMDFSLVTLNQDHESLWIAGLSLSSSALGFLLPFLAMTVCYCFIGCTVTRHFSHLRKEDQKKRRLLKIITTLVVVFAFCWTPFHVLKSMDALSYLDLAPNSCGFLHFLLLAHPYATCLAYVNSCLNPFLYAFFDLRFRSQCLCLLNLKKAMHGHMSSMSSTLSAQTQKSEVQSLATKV

With `C[C@H]1CCC/C=C/[C@@H]2C[C@H](O)C[C@H]2[C@H](O)/C=C/C(=O)O1` [Brefeldin A] the “ELA processing and secretion” value [1] was “able to block ELA processing and secretion”.

In the case of `C[C@@H](N)[C@H]1CC[C@H](C(=O)Nc2ccncc2)CC1` [ROCK inhibitor, Y-27632, reference compound], the “survival following dissociation (anoikis)” value (hESCs [2]) was “protects against anoikis”.

In the case of “AP-ELA: mature C-terminal 32-mer of ELA cloned in frame with alkaline phosphatase, secreted from 293T cells”, the “binding of AP-ELA to aplnrb^grinch” value (aplnrb^grinch (W90L)) was “unable to bind AP-ELA”, the “cell-surface binding of AP-ELA to aplnrb” value (zebrafish aplnrb) was “sufficient to afford cell-surface binding” and the “binding of AP-ELA to hESCs” value (hESCs [3]) was “readily bind”. For the same compound, the “cell-surface binding of AP-ELA to aplnra” value (zebrafish aplnra) was “sufficient to afford cell-surface binding”.

— US9902761B2, “Polypeptides, nucleic acids and uses thereof” (AGENCY FOR SCIENCE, TECHNOLOGY AND RESEARCH, priority 2013, dated 2018)
